Values joined by “and” are separate entries in the source; they are usually repeats but may differ in a detail not shown here. Equal values may be shown once.

Results on ten compounds are retold here after patent publication US20210330599A1, “Nanoparticles for Controlled Release of Anti-Biofilm Agents and Methods of Use” (University of Rochester, priority 2016, published 2021).

The conditions of data set [1]: monomer / monomer residue; cited from earlier work.
For the next data set, the system named is S. mutans UA159 biofilms. The data set is described as follows: S. mutans biofilm on sHA discs, topical treatment regimen (Example 2). The class given is cell-based, Streptococcus mutans. The settings on record: equivalent farnesol dose / controls. The method, then:
Biofilms of S. mutans UA159 were formed on saliva coated hydroxyapatite (sHA) surfaces (12.7 mm in diameter, 1 mm in thickness, Clarkson Chromatography Products Inc., South Williamsport, Pa.) as detailed elsewhere (Koo et al., 2010, J Bacteriol, 192(12):3024-32). […] Disks were pretreated with the above-described solutions for 10 min, washed twice with sterile saline, and transferred back to culture media. […] Biofilms were allowed to form on the discs without interruption for 6 hours at which point a second treatment was applied. The next day, biofilms were treated every 6 hours for a total of 3 treatments and the culture media was changed twice. After 48 hours, the amount of colony forming units (CFU) per dry-weight of biofilms was assessed. Briefly, the biofilms were removed and homogenized, then plated onto blood agar plates, and after incubation at 37° C., 5% CO2, the CFUs were counted as described previously (Koo et al., 2003, J Antimicrob Chemother, 52(5):782-9).

For data set [2], the system named is Streptococcus mutans UA159 biofilms. The data set is described as follows: S. mutans biofilm on sHA discs, topical treatment regimen (Example 3). The class given is cell-based. The settings on record: 7 topical applications over 54 h. The method, then: Streptococcus mutans UA159, a well-characterized EPS matrix producing and cariogenic pathogen (W. H. Bowen and H. Koo, Caries Res., 2011, 45, 69-86), was used to assess the effect of nanoparticle-mediated delivery of farnesol on biofilm formation using a topical treatment regimen (Horev et al., ACS Nano, 2015, 9, 2390-2404; Koo et al., J. Antimicrob. Chemother., 2003, 52, 782-789). The treatment solutions were: free nanoparticles (1.9 mg ml^−1 in PBS, pH 7.0), farnesol-loaded nanoparticles (1.9 mg ml^−1 loaded with 0.5 mg ml^−1 farnesol, in PBS, pH 7.0), free farnesol (0.5 mg ml^−1 farnesol, in PBS, pH 7.0, 20% ethanol (EtOH)), vehicle control for free farnesol (PBS, pH 7.0, 20% EtOH), and PBS (pH 7.0). A 20% v/v ethanol solution was used as a vehicle to solubilize free farnesol, which is otherwise insoluble in aqueous media (Koo et al., J. Antimicrob. Chemother., 2003, 52, 782-789). […]
The sHA discs and biofilms were treated for 10 min, washed twice with sterile saline (0.89% NaCl), and transferred to culture media. […] Aliquots of biofilm suspension were serially diluted and plated onto blood agar plates, and after 48 h incubation (37° C. and 5% CO2), the colonies were visually counted. […]

The subject of a further data set is Streptococcus mutans. Particulars: cited from earlier work.
Data set [3] is described as follows: Encapsulation of fluoride using NPC. Type of data set: physicochemical. The settings on record: preliminary studies. From the text:
(§1) In addition, amine fluoride is known to have antibacterial properties.

For another data set, the system named is S. mutans cells.
From the text: as §1

Data set [4] in a line: pKa and protonation values of monomers and polymers. The class given is physicochemical. The settings on record: FIG. 22.
For data set [5] the following is noted: farnesol on one degradable tether length (6 degradable bonds).

As for `C=C(C)C(=O)OCCN(CC)CC` [DEAEMA, diethylaminoethyl methacrylate], the pKa of monomer in data set [1] is listed as roughly 7. For the compound `C=C(C)C(=O)OCCN(C)C` [DMAEMA, dimethylaminoethyl methacrylate], the pKa of monomer in data set [1] was ~7.2 and 7.2-7.4. As to `C=C(C)C(=O)O` [MAA, methacrylic acid], the pKa of monomer in data set [1] is reported as roughly 4.6.

Regarding `CC(C)=CCCC(C)=CCCC(C)=CCO` [farnesol], the “effect on biofilm CFU relative to PBS” value in the data set with S. mutans UA159 biofilms is listed as “no effect on CFU relative to PBS”. For the same compound, in data set [2], the “CFUs per biofilm dry weight / antibiofilm efficacy” value is reported as “only a modest reduction”. Also, the MIC of farnesol with Streptococcus mutans is less than 28 µg/mL. `[F-].[Na+]` [sodium fluoride]: the “compatibility with loading into NPC” value in data set [3] was “not compatible with loading into or onto the NPC”. On to Amine fluoride, for which, in the data set with S. mutans cells, the biofilm formation result was “inhibit biofilm formation” and the “killing of S. mutans cells” value is “able to kill S. mutans cells at the μM level”. For the compound Imidazole methacrylate [IMA], in data set [1], the pKa of monomer is on record as 6.9-7.0. Take ethylacrylic acid [EAA]: the pKa of monomer in data set [1] was ~6.3 and 6.3-6.5. Besides, the “pKa of synthesized imidazole and ethylacrylic acid functionalities” value in data set [4] is 6.3. In the case of “poly(dimethylaminoethyl methacrylate)-b-poly(dimethylaminoethyl methacrylate-co-propylacrylic acid-co-butyl methacrylate) [NPC]”, the “duration of sustained delivery of farnesol” value in data set [5] is “up to 6 days”. As for propylacrylic acid [PAA], in data set [1], the pKa of monomer was ~7 and 6.8-7.0.
